The target of experiment [1] is T1, human CB2 receptors (Homo sapiens, UniProt P34972).
T1 construct: expressed in transfected cells; host or cells: CHO cells
Kind of experiment: functional cAMP assay, human CB2. It is filed as cell-based. On the procedure:
(§1) CHO cells expressing human CB1 or CB2 receptors are seeded 17-24 hours prior to the experiment 50.000 cells per well in a black 96 well plate with flat clear bottom (Corning Costar #3904) in DMEM (Invitrogen No. 31331), 1×HT supplement, with 10% fetal calf serum and incubated at 5% CO2 and 37° C. in a humidified incubator. The growth medium was exchanged with Krebs Ringer Bicarbonate buffer with 1 mM IBMX and incubated at 30° C. for 30 min. Compounds were added to a final assay volume of 100 μl and incubated for 30 min at 30° C. Using the cAMP-Nano-TRF detection kit the assay (Roche Diagnostics) was stopped by the addition of 50 μl lysis reagent (Tris, NaCl, 1.5% Triton X100, 2.5% NP40, 10% NaN3) and 50 μl detection solutions (20 μM mAb Alexa700-cAMP 1:1, and 48 μM Ruthenium-2-AHA-cAMP) and shaken for 2 h at room temperature. The time-resolved energy transfer is measured by a TRF reader (Evotec Technologies GmbH), equipped with a ND:YAG laser as excitation source. The plate is measured twice with the excitation at 355 nm and at the emission with a delay of 100 ns and a gate of 100 ns, total exposure time 10 s at 730 (bandwidth 30 nm) or 645 nm (bandwidth 75 nm), respectively. The FRET signal is calculated as follows: FRET=T730-Alexa730-P(T645-B645) with P=Ru730-B730/Ru645-B645, where T730 is the test well measured at 730 nM, T645 is the test well measured at 645 nm, B730 and B645 are the buffer controls at 730 nm and 645 nm, respectively. cAMP content is determined from the function of a standard curve spanning from 10 μM to 0.13 nM cAMP.
(§2) EC50 values were determined using Activity Base analysis (ID Business Solution, Limited). The EC50 values for a wide range of cannabinoid agonists generated from this assay were in agreement with the values published in the scientific literature.
Background: Cyclic AMP is a second messenger, typically raised through Gs and lowered through Gi signalling.

Experiment [2] concerns the target T2, human CB1 receptors (Homo sapiens, UniProt P21554).
T2 construct: expressed in transfected cells; host or cells: CHO cells
The experiment in a line: functional cAMP assay, human CB1. The experiment is classed as cell-based. On the procedure: as §1, §2

[3] abbreviates: CHO cells expressing human CB2, cAMP, read-out: human CB2 EC50.
The mark [4] stands for this setting: CHO cells expressing human CB1, cAMP, read-out: human CB1 EC50.

Here are results for 25 compounds from US8741906B2 (priority 2011, dated 2014).

What is called EC50 is the concentration that produces a half-maximal response.

The structures appear in SMILES notation. Where two headings read alike, the source gives them in different places.

T1 sequence (P34972 whole entry): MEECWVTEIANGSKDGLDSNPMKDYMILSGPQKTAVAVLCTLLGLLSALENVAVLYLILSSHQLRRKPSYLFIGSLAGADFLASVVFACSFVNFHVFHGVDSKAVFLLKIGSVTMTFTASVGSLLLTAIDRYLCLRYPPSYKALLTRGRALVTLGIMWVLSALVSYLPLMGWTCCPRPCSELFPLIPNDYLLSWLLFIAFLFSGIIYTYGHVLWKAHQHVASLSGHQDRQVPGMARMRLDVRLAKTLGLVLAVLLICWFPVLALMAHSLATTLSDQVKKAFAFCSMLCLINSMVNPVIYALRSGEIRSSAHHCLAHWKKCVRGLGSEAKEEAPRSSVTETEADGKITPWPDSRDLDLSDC
T2 sequence (P21554 whole entry): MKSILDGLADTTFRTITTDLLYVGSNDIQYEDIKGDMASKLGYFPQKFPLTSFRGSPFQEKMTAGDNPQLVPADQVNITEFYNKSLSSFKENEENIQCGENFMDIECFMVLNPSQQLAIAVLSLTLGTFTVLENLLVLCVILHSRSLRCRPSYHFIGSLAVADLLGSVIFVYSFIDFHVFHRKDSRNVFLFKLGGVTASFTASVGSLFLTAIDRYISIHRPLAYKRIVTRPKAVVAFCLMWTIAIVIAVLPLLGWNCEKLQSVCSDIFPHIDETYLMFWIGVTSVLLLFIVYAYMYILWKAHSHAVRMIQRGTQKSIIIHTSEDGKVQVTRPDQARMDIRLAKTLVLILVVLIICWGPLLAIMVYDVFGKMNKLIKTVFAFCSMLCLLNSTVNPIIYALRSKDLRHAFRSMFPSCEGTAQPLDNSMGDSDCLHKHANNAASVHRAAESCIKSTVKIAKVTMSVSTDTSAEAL

As for `CC(C)(C)c1nc(N2CCC(F)(F)C2)c2nnn(CCc3cccc(Cl)c3)c2n1` [Example 104, 5-tert-Butyl-3-[2-(3-chloro-phenyl)-ethyl]-7-(3,3-difluoro-pyrrolidin-1-yl)-3H-[1,2,3]triazolo[4,5-d]pyrimidine], the values for the EC50 in experiment [1] (setting [3]) and in experiment [2] (setting [4]) were 0.9 nM and more than 10000 nM, respectively.
On to `Cn1nnnc1Cn1nnc2c(N3CC[C@H](O)C3)nc(C(C)(C)C)nc21` [Example 151, (S)-1-[5-tert-Butyl-3-(1-methyl-1H-tetrazol-5-ylmethyl)-3H-[1,2,3]triazolo[4,5-d]pyrimidin-7-yl]-pyrrolidin-3-ol], for which the EC50 in experiment [1] was 1.4 nM; in experiment [2], more than 10000 nM.
On to `CC(C)(C)c1nc(N2CCC(F)(F)C2)c2nnn(Cc3c(F)ccc(F)c3Cl)c2n1` [Example 78, 5-tert-Butyl-3-(2-chloro-3,6-difluoro-benzyl)-7-(3,3-difluoro-pyrrolidin-1-yl)-3H-[1,2,3]triazolo[4,5-d]pyrimidine], for which the EC50 was 0.1 nM in experiment [1] (setting [3]) and 143 nM in experiment [2] (setting [4]).
In the same order, the values of `CC(C)(C)c1nc(N2CC[C@H](O)C2)c2nnn(Cc3ccccc3S(C)(=O)=O)c2n1` [Example 143, (S)-1-[5-tert-Butyl-3-(2-methanesulfonyl-benzyl)-3H-[1,2,3]triazolo[4,5-d]pyrimidin-7-yl]-pyrrolidin-3-ol] are 0.1 nM and more than 10000 nM.
On the same counts, the results for `CC(=O)N[C@@H]1CCN(c2nc(C(C)(C)C)nc3c2nnn3Cc2ccccc2Cl)C1` [Example 193, N-{(R)-1-[5-tert-Butyl-3-(2-chloro-benzyl)-3H-[1,2,3]triazolo[4,5-d]pyrimidin-7-yl]-pyrrolidin-3-yl}-acetamide] are 593 nM and more than 10000 nM.
In the case of `CC(C)(C)COc1nc(C(C)(C)C)nc2c1nnn2Cc1ccccc1Cl` [Example 213, 5-tert-Butyl-3-(2-chloro-benzyl)-7-(2,2-dimethyl-propoxy)-3H-[1,2,3]triazolo[4,5-d]pyrimidine], the EC50 in experiment [1] (setting [3]) is 59.6 nM; in experiment [2] (setting [4]), more than 10000 nM.
In the same order, the values of `CN(C)c1c(Cl)cncc1Cn1nnc2c(N3CCC(F)(F)C3)nc(C(C)(C)C)nc21` [Example 134, {3-[5-tert-Butyl-7-(3,3-difluoro-pyrrolidin-1-yl)-[1,2,3]triazolo[4,5-d]pyrimidin-3-ylmethyl]-5-chloro-pyridin-4-yl}-dimethyl-amine] are 0.3 nM and 234 nM.
On the same counts, the results for `CC(C)(C)c1nc(N2CCC(F)(F)C2)c2nnn(Cc3c(Cl)ccc(Cl)c3Cl)c2n1` [Example 119, 5-tert-Butyl-7-(3,3-difluoro-pyrrolidin-1-yl)-3-(2,3,6-trichloro-benzyl)-3H-[1,2,3]triazolo[4,5-d]pyrimidine] are 0.3 nM and 91 nM.
On the same counts, the results for `CC1(C)CN(c2nc(C(C)(C)C)nc3c2nnn3Cc2ccccc2Cl)CCO1` [Example 23, 5-tert-Butyl-3-(2-chloro-benzyl)-7-(2,2-dimethyl-morpholin-4-yl)-3H-[1,2,3]triazolo[4,5-d]pyrimidine] are 75.4 nM and more than 10000 nM.
Consider `Cc1nnc(Cn2nnc3c(N4CC5(COC5)C4)nc(C(C)(C)C)nc32)n1C` [Example 184, 5-tert-Butyl-3-(4,5-dimethyl-4H-[1,2,4]triazol-3-ylmethyl)-7-(2-oxa-6-aza-spiro[3.3]hept-6-yl)-3H-[1,2,3]triazolo[4,5-d]pyrimidine], for which the results for the EC50 in experiment [1] (setting [3]) and in experiment [2] were 112 nM and more than 10000 nM, respectively.
Take `CC(C)(C)c1nc(N2CCC(F)(F)C2)c2nnn(CCO)c2n1` [Example 63, 2-[5-tert-Butyl-7-(3,3-difluoro-pyrrolidin-1-yl)-[1,2,3]triazolo[4,5-d]pyrimidin-3-yl]-ethanol]: the values for the EC50 in experiment [1] (setting [3]) and in experiment [2] (setting [4]) were 18.2 nM and more than 10000 nM, respectively.
In the same order, the values of `CC(Oc1nc(C(C)(C)C)nc2c1nnn2Cc1ccccc1Cl)C1CC1` (centres unmarked) [Example 211, 5-tert-Butyl-3-(2-chloro-benzyl)-7-(1-cyclopropyl-ethoxy)-3H-[1,2,3]triazolo[4,5-d]pyrimidine] are 98.6 nM and more than 10000 nM.
In the same order, the values of `C[C@H](Oc1nc(C(C)(C)C)nc2c1nnn2Cc1ccccc1Cl)C(F)(F)F` [Example 215, 5-tert-Butyl-3-(2-chloro-benzyl)-7-((S)-2,2,2-trifluoro-1-methyl-ethoxy)-3H-[1,2,3]triazolo[4,5-d]pyrimidine] are 24.7 nM and more than 10000 nM.
For the compound `CC(C)(C)c1nc(N2CC2)c2nnn(Cc3ccccc3Cl)c2n1` [Example 41, 7-Aziridin-1-yl-5-tert-butyl-3-(2-chloro-benzyl)-3H-[1,2,3]triazolo[4,5-d]pyrimidine], the values for the EC50 in experiment [1] and in experiment [2] were 36.5 nM and 1220 nM, respectively.
Consider `CC(C)(C)c1nc(N2CCCC2(C)C)c2nnn(Cc3ccccc3Cl)c2n1` [Example 29, 5-tert-Butyl-3-(2-chloro-benzyl)-7-(2,2-dimethyl-pyrrolidin-1-yl)-3H-[1,2,3]triazolo[4,5-d]pyrimidine], for which the EC50 in experiment [1] (setting [3]) was 12.5 nM; in experiment [2] (setting [4]) it was 1630 nM.
In the same order, the values of `Cc1nonc1Cn1nnc2c(N3CC[C@H](O)[C@@H]3CO)nc(C(C)(C)C)nc21` [Example 164, (2S,3S)-1-[5-tert-Butyl-3-(4-methyl-furazan-3-ylmethyl)-3H-[1,2,3]triazolo[4,5-d]pyrimidin-7-yl]-2-hydroxymethyl-pyrrolidin-3-ol] are 0.8 nM and more than 10000 nM.
As for `Cc1nonc1Cn1nnc2c(N3CC[C@@](C)(O)C3)nc(C(C)(C)C)nc21` [Example 228-b, (R)-1-(5-tert-butyl-3-((4-methyl-1,2,5-oxadiazol-3-yl)methyl)-3H-[1,2,3]triazolo[4,5-d]pyrimidin-7-yl)-3-methylpyrrolidin-3-ol], the EC50 in experiment [1] (setting [3]) was 3.3 nM; in experiment [2] (setting [4]), more than 10000 nM.
In the same order, the values of `CC(C)(C)c1nc(N2CCC[C@@H]2C#N)c2nnn(Cc3ccccc3Cl)c2n1` [Example 49, (R)-1-[5-tert-Butyl-3-(2-chloro-benzyl)-3H-[1,2,3]triazolo[4,5-d]pyrimidin-7-yl]-pyrrolidine-2-carbonitrile] are 1.1 nM and 155 nM.
On the same counts, the results for `CC(C)(C)c1nc(N2CCCC2)c2nnn(Cc3ccccc3Cl)c2n1` [Example 5, 5-tert-Butyl-3-(2-chloro-benzyl)-7-pyrrolidin-1-yl-3H-[1,2,3]triazolo[4,5-d]pyrimidine] are 0.3 nM and 632 nM.
In the same order, the values of `CC(C)(C)c1nc(N2CCC(F)(F)C2)c2nnn(Cc3nc(C(F)(F)F)no3)c2n1` [Example 156, 5-tert-Butyl-7-(3,3-difluoro-pyrrolidin-1-yl)-3-(3-trifluoromethyl-[1,2,4]oxadiazol-5-ylmethyl)-3H-[1,2,3]triazolo[4,5-d]pyrimidine] are 5.6 nM and more than 10000 nM.
`CCNc1nc(C(C)(C)C)nc2c1nnn2Cc1ccccc1Cl` [Example 7, [5-tert-Butyl-3-(2-chloro-benzyl)-3H-[1,2,3]triazolo[4,5-d]pyrimidin-7-yl]-ethyl-amine]: the EC50 in experiment [1] (setting [3]) is 11.2 nM; in experiment [2] (setting [4]), more than 10000 nM.
In the case of `CCN(C(C)=O)C1CCN(c2nc(C(C)(C)C)nc3c2nnn3Cc2ccccc2Cl)C1` (centres unmarked) [Example 196, N-{1-[5-tert-Butyl-3-(2-chloro-benzyl)-3H-[1,2,3]triazolo[4,5-d]pyrimidin-7-yl]-pyrrolidin-3-yl}-N-ethyl-acetamide], the EC50 is 119 nM in experiment [1] (setting [3]) and more than 10000 nM in experiment [2].
`CC(C)(C)c1nc(N2CCC(F)(F)C2)c2nnn(Cc3cccc(C(F)(F)F)c3Cl)c2n1` [Example 120, 5-tert-Butyl-3-(2-chloro-3-trifluoromethyl-benzyl)-7-(3,3-difluoro-pyrrolidin-1-yl)-3H-[1,2,3]triazolo[4,5-d]pyrimidine]: the EC50 in experiment [1] (setting [3]) is 0.7 nM; in experiment [2] (setting [4]), 181 nM.
In the same order, the values of `CC(C)(C)c1nc(N2CCC(F)(F)C2)c2nnn(Cc3c[nH]nc3C(F)(F)F)c2n1` [Example 135, 5-tert-Butyl-7-(3,3-difluoro-pyrrolidin-1-yl)-3-(3-trifluoromethyl-1H-pyrazol-4-ylmethyl)-3H-[1,2,3]triazolo[4,5-d]pyrimidine] are 0.4 nM and 1400 nM.
On the same counts, the results for `CC(C)(C)c1nc(N2CCC(F)(F)C2)c2nnn(CC(F)(F)F)c2n1` [Example 76, 5-tert-Butyl-7-(3,3-difluoro-pyrrolidin-1-yl)-3-(2,2,2-trifluoro-ethyl)-3H-[1,2,3]triazolo[4,5-d]pyrimidine] are 2.3 nM and more than 10000 nM.
